Assay results published in patent publication US7129257B1, “Pyrazolo[3,4- e]benzoxazoles for the treatment of glaucoma” (Alcon, Inc., priority 2003, dated 2006).

Tests used:
5-HT2A receptor [1] = biological target: T1, 5-HT2A receptor (Rattus norvegicus, UniProt P14842); test: 5-HT2 Receptor Binding Assay ([125I]DOI competition); settings: [125I]DOI binding, post mortem rat or human cerebral cortex homogenates
Experimental: The procedures described herein in Method 1 can be used to confirm a compound's 5-HT2 binding affinity.
5-HT2 Receptor Binding Assay
Aliquots of post mortem rat or human cerebral cortex homogenates (400 μL) dispersed in 50 mM TrisHCl buffer (pH 7.4) are incubated with [^125I]DOI (80 pM final) in the absence or presence of methiothepin (10 μM final) to define total and non-specific binding, respectively, in a total volume of 0.5 mL. The assay mixture is incubated for 1 hour at 23° C. in polypropylene tubes and the assays terminated by rapid vacuum filtration over Whatman GF/B glass fiber filters previously soaked in 0.3% polyethyleneimine using ice-cold buffer. Test compounds (at different concentrations) are substituted for methiothepin. Filter-bound radioactivity is determined by scintillation spectrometry on a beta counter. The data are analyzed using a non-linear, iterative curve-fitting computer program [Trends Pharmacol. Sci., 16, 413 (1995)] to determine the compound affinity parameter. The concentration of the compound needed to inhibit the [^125I]DOI binding by 50% of the maximum is termed the IC50 or Ki value.

5-HT2A receptor [2] = biological target: T1, 5-HT2A receptor; test: 5-HT2 Functional Assay: [Ca2+]i Mobilization (FLIPR); type: cell-based; set-up: endogenous in cells; host or cells: A7r5 rat vascular smooth muscle cells; settings: for EC50: [Ca2+]i mobilization, rat vascular smooth muscle cells A7r5; for Emax: percentage of maximum 5-HT-induced response, A7r5 cells
Experimental: 5-HT2 Functional Assay: [Ca^2+]i; Mobilization
The receptor-mediated mobilization on intracellular calcium ([Ca^2+]i) was studied using the Fluorescence Imaging Plate Reader (FLIPR) instrument. Rat vascular smooth muscle cells, A7r5, were grown in a normal media of DMEM/10% FBS and 10 μg/mL gentamycin. Confluent cell monolayers were trypsinized, pelleted, and re-suspended in normal media. Cells were seeded in a 50 μL volume at a density of 20,000 cells/well in a black wall, 96-well tissue culture plate and grown for 2 days.
On the day of the experiment, one vial of FLIPR Calcium Assay Kit dye was re-suspended in 50 mL of a FLIPR buffer consisting of Hank's Balanced Salt Solution (HBSS), 20 mM HEPES, and 2.5 mM probenecid, pH 7.4. Cells were loaded with the calcium-sensitive dye by addition of an equal volume (50 μL) to each well of the 96-well plate and incubated with dye for 1 h at 23° C.
Typically, test compounds were stored at 25 μM in 50% DMSO/50% Ethanol solvent. Compounds were diluted 1:50 in 20% DMSO/20% Ethanol. For “hit” screening, compounds were further diluted 1:10 in FLIPR buffer and tested at a final concentration of 10 μM. For dose-response experiments, compounds were diluted 1:50 in FLIPR buffer and serially diluted 1:10 to give a 5- or 8-point dose-response curve.
The compound plate and cell plate were placed in the FLIPR instrument. At the beginning of an experimental run, a signal test was performed to check the basal fluorescence signal from the dye-loaded cells and the uniformity of the signal across the plate. The basal fluorescence was adjusted between 8000–12000 counts by modifying the exposure time, the camera F-stop, or the laser power. Instrument settings for a typical assay were the following: laser power 0.3–0.6 W, camera F-stop F/2, and exposure time 0.4 sec. An aliquot (25 μL) of the test compound was added to the existing 100 μL dye-loaded cells at a dispensing speed of 50 μL/sec. Fluorescence data were collected in real-time at 1.0 sec intervals for the first 60 secs and at 6.0 sec intervals for an additional 120 secs. Responses were measured as peak fluorescence intensity minus basal and where appropriate were expressed as a percentage of a maximum 5-HT-induced response. When the compounds were tested as antagonists against 10 μM 5-HT, they were incubated with the cells for 15 minutes prior to the addition of 5-HT.

T1 sequence (P14842 whole entry): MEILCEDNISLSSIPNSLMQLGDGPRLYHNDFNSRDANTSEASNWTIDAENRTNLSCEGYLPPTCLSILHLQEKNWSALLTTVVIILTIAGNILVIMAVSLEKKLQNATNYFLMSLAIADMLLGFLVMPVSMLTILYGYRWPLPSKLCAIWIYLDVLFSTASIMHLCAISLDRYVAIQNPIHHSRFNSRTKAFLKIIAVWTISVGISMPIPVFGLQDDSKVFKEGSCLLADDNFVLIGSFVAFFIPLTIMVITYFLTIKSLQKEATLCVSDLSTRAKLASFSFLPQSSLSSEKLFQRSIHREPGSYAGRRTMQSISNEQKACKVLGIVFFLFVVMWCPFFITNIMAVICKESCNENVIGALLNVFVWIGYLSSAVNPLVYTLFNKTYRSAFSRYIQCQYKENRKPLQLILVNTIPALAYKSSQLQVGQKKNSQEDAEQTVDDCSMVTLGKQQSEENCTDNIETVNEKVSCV

| SMILES | IC50 (5-HT2A receptor [1]) | EC50 (5-HT2A receptor [2]) | Emax (5-HT2A receptor [2]) | melting point |
| --- | --- | --- | --- | --- |
| COc1nc2c(ccc3cnn(C[C@H](C)N)c32)o1 [Example 1, (S)-2-(7-Methoxy-1H-pyrazolo[3,4-e]benzoxazol-1-yl)-1-methylethylamine] | 8 nM | 352 nM | 72% |  |
| C[C@H](N)Cn1ncc2ccc3oc(C(N)=O)nc3c21 [Example 3, 1-[(S)-2-Aminopropyl]-1H-pyrazolo[3,4-e]benzoxazole-7-carboxylic acid amide] |  | 445 nM | 72% | 60 to 65 °C |
| CNC(=O)c1nc2c(ccc3cnn(C[C@H](C)N)c32)o1 [Example 4, 1-[(S)-2-Aminopropyl]-1H-pyrazolo[3,4-e]benzoxazole-7-carboxylic acid methylamide] | 19 nM | 907 nM | 77% |  |
| COCc1nc2c(ccc3cnn(C[C@H](C)N)c32)o1 [Example 2, (S)-2-[7-(Methoxymethyl)-1H-pyrazolo[3,4-e]benzoxazol-1-yl]-1-methylethylamine] | 6 nM | 174 nM | 88% | 40 to 43 °C |
